Data reported in patent US12622922B2, “Compositions and methods for metal containing formulations capable of modulating immune response” (The Regents of the University of Michigan, priority 2018, dated 2026).

Assays:
[1] = system: cGAS-STING-Type I IFN pathway; experiment: Inhibition of DNA/lipofectamine-induced IFN-I response in THP 1 dual-KI-hSTING WT(R232) reporter cells; assay type: cell-based, human; conditions: DNA/lipofectamine complex challenging, ISRE induced luminescence
Description: (§1) FIG. 18: Chelating metal ions to inhibit cGAS-STING-Type I IFN pathway. a) Molecular structure of representative chelators that could inhibit cGAS-STING-Type I IFN pathway. b-c) Dose-inhibition curves of the IFN-I response (b) and NF-kB inflammation response (c) by the indicated compounds in DNA/lipofectamine 2000 (ThermoFisher, 11668027) treated THP 1 dual-KI-hSTING^WT(R232) reporter cells (Invivogen, thpd-r232). d) Cellular viability of b-c. e) Dose-inhibition curves of the IFN-I response by the indicated compounds in DNA/lipofectamine 2000 (ThermoFisher, 11668027) treated THP 1-ISG hSTING^HAQ reporter cells (Invivogen, thp-isg). […]
(§2) Given the interesting function of metal ions on modulating innate immune response in our finding, we further evaluated whether chelating metal ions could inhibit the according innate immune pathways, which may be used to treat autoimmune diseases, such as Systemic lupus erythematosus, Aicardi-Goutières syndrome, Acute pancreatitis Age-dependent macular degeneration, Alcoholic liver disease, Liver fibrosis, Metastasis, Myocardial infarction, Nonalcoholic steatohepatitis (NASH), Parkinson's disease, Polyarthritis/fetal and neonatal anemia, Sepsis, inflammatory bowel disease, multiple sclerosis, etc. […] By a ISRE induced luminescence, we could read the degree of inhibition. […]

[2] = system: THP 1 dual-KI-hSTING^WT(R232) reporter cells; experiment: Cellular viability of chelator-treated THP 1 dual-KI-hSTING WT(R232) reporter cells; assay type: cell-based, human
Description: as §1, §2

CT26 colon cancer cells [3] = experiment: CT26 colon tumor model, metal ion plus STING agonist CDA, intratumoral; assay type: in vivo, Balb/c mice; conditions: CT26 tumor-bearing mice
Protocol: FIG. 6: Enhanced STING activation and cancer therapy efficacy by Co^2+ and Mn^2+ in vivo. a) individual tumor growth curve after three dose of intratumor injection of the indicated formulation at day 9, 12, 15 after tumor inoculation. b) Serum IFN-beta concentration 8 h after the 1st dose of the indicated formulation. c-d) individual tumor growth (c) and survival (d) of the tumor bearing mice after treated with the indicated formulations.
FIG. 7: Enhanced STING activation by Co^2+ and Mn^2+ led to improved antigen specific immune response after in vivo. a) the percentage of AH1-specific CD8+ T cells among PBMC on day 16. b) IFN-γ secreting cells counts per 5E4 PBMCs after stimulation with AH1 peptides at day 22. c-e) timeline (c). tumor growth curve (d) and AH1-specific CD8+ T cells percentage in spleen CD8+ T cells (e) in tumor re-challenging study starting from day 81. […]
We examined whether the enhanced type-I IFN response in vitro could benefit cancer treatment in vivo. We evaluated the combination of metal ions and STING agonist in a murine tumor model.
To study the mechanisms of action for the improved cancer therapy efficacy, we evaluated the treated animals for antigen-specific T cell responses and performed tumor re-challenging study after 81 days of the initial treatment.

CT26 colon cancer cells [4] = system: CT26 colon cancer cells
Protocol: When tumor size reach ˜60 mm^3, 2 doses of 25 μg/dose cdAMP(ps)2 were administrated intra-tumorally on days 10 and 15. To evaluate antigen-specific immune responses, PBMCs were collected for tetramer staining on day 17 and ELISPOT analysis with AH1 antigen peptides on day 22.
Female Balb/c mice of age 6-8 weeks (Jackson Laboratories) were inoculated with 1×10^5 CT26 colon cancer cells. When tumor size achieved ˜100 mm^3, 2 doses of 25 μg cdAMP(ps)2 in different formulations were administrated via intra-tumoral route on day 10 and day 15. Tumor size and survival were monitored every 2 or 3 days. Tumor size was calculated based on equation: volume=length×width^2×0.5. Animals were euthanized when the tumor reached 1.5 cm in diameter or when animals became moribund with severe weight loss or ulceration. At day 17, the percentages of tumor antigen-specific CD8α+ T cells among PBMC were analyzed using the tetramer staining assay as described previously with peptide-MHC tetramer (H-2Kb-restricted AH1) (the NIH Tetramer Core Facility, Atlanta, GA). On day 22, ELISPOT assay was performed with PBMC from the treated mice as described previously.
We also evaluated a subset of the formulations mentioned above in tumor-bearing mice. When tumor size reached ˜60 mm^3, 2 doses of indicated formulation with 25 μg/dose adAMP(ps)2 were administrated intratumorally on days 10 and 15.

Compound	IC50 of DNA-induced Type I IFN response [1]	tolerability in in-vitro assay (cellular viability) [2]	survival rate (CT26 colon cancer cells [3]) [%]	AH1 antigen-specific T cell response (ELISPOT) (CT26 colon cancer cells [4]; PBMC, day 22, seven days after the 2nd dose)	complete tumor regression (CT26 colon cancer cells [4]; number of mice out of 5)
O=C1O[C@H]2[C@@H]3OC(=O)c4cc(O)c(O)c(O)c4-c4c(O)c(O)c5oc(=O)c6c(c(O)c(O)c7oc(=O)c4c5c76)-c4c(cc(O)c(O)c4O)C(=O)OC[C@H]3OC(O)[C@@H]2OC(=O)c2cc(O)c(O)c(O)c2-c2c1cc(O)c(O)c2O (mixture of isomers) [Punicalagin]	as low as nanomolar level	well-tolerated			
Nc1ncnc2c1ncn2[C@@H]1O[C@@H]2COP(=O)(O)O[C@H]3[C@@H](O)[C@H](n4cnc5c(N)ncnc54)O[C@@H]3COP(=O)(O)O[C@H]2[C@H]1O [free CDA]			20		
O=C(OC[C@H]1O[C@@H](OC(=O)c2cc(O)c(O)c(OC(=O)c3cc(O)c(O)c(O)c3)c2)[C@H](OC(=O)c2cc(O)c(O)c(OC(=O)c3cc(O)c(O)c(O)c3)c2)[C@@H](OC(=O)c2cc(O)c(O)c(OC(=O)c3cc(O)c(O)c(O)c3)c2)[C@@H]1OC(=O)c1cc(O)c(O)c(OC(=O)c2cc(O)c(O)c(O)c2)c1)c1cc(O)c(O)c(OC(=O)c2cc(O)c(O)c(O)c2)c1 [tannin acid]	as low as nanomolar level	well-tolerated			
cdAMP(ps)2 [free CDN]				significant	2 out of 5
